Assay results from patent US3969521A, “Pharmaceutical compositions containing tetrahydroalstonine and method for treating circulation disorders” (Science Union et Cie, Societe Francaise de Recherche Medical, priority 1974, dated 1976).
Entries after “also recorded” stand apart in the source; their conditions may differ.

Key:
[1] = test system: recovery of learned memories; assay: Recovery of learned memories after electroshock (aquatic maze crossing); assay type: in vivo, rat; conditions: for effect on the recovery of learned memory: rat, in vivo
Description: Effects of tetrahydroalstonine on the recovery of learned memories on rats.
Tetrahydroalstonine has been tested on lots of rats in order to determine how fast it allows the recovery of learned memories after supramaximal electroshock in comparision with Vincamine and Papaverine. These last compounds are known to be active on the circulation namely as vasodilating agents.
In this test, as described by C. Giurgea (J. Pharmacol. (Paris) 3 17 (1972)), the rats are submitted to a submaximal electroshock which causes a spatio-temporal desorientation. This syndrom is evidenced by the difficulties the tested animals encountered for crossing over a maze filled with cold water without any error, after they have been submitted to the electroshock. The rats have been previously trained to swimm through this maze and the training has been renewed four times for 2 days.
The electric shock was delivered by means of a Neurovar apparatus (ALVAR Electronics) the third day. 20 Minutes after the electro shock, each lot of rats is tested and the time for crossing over the maze is determined. Immediately after, the rats received the compound to be tested by intra oesophageal tubing. Each lot is then experienced four times, 1, 2, 3, and 4 hours after the electroshock.
The score of performances of each individual is recorded and every error during the crossing over noticed.
The compounds to be tested (papaverine, vincamine and tetrahydroalstonine) are given to the animals, suspended in an aqueous solution of carboxymethylcellulose and sorbitan monooleate.
Papaverine and vincamine were administered at dosis ranging from 1 to 20 mg/kg. Tetrahydroalstonine was administered at a dosis of 0.6 mg/kg, 6 mg/kg and 60 mg/kg.
A lot of rats received only the aqueous solvent under the same volume (0.5 ml/100 g animal) as controls.
Therein are reported for each lot of rats the number of errors and the average time for crossing over the maze during the 5 tests performed after the animals have been subjected to the electroshock.
The treatment has been given 20 mn after the electroshock, immediately
after the first crossing over

central nervous system = assay: Effects on the central nervous system; assay type: in vivo
[2] = test system: analgetic effect of Morphine; assay: Analgetic effect of Morphine; conditions: in vivo
[3] = 10 mg/kg P.O., 20 minutes (before treatment)
[4] = 10 mg/kg P.O., 20 minutes after electroshock (before treatment)
[5] = 20 mg/kg P.O., 20 minutes (before treatment)
[6] = 20 mg/kg P.O., 20 minutes after electroshock (before treatment)

| Compound | a = variation of average number of errors as regard as the controls [1, 3] | E = average number of errors [1, 4] | T = average time for crossing over [1, 4] | E = average number of errors ([1]; 10 mg/kg P.O., 60 minutes) | T = average time for crossing over ([1]; 10 mg/kg P.O., 60 minutes) | a = variation of average number of errors as regard as the controls ([1]; 10 mg/kg P.O., 60 minutes) | E = average number of errors ([1]; 10 mg/kg P.O., 120 minutes) | T = average time for crossing over ([1]; 10 mg/kg P.O., 120 minutes) | a = variation of average number of errors as regard as the controls ([1]; 10 mg/kg P.O., 120 minutes) | E = average number of errors ([1]; 10 mg/kg P.O., 180 minutes) | T = average time for crossing over ([1]; 10 mg/kg P.O., 180 minutes) | a = variation of average number of errors as regard as the controls ([1]; 10 mg/kg P.O., 180 minutes) | E = average number of errors ([1]; 10 mg/kg P.O., 240 minutes) | T = average time for crossing over ([1]; 10 mg/kg P.O., 240 minutes) | a = variation of average number of errors as regard as the controls ([1]; 10 mg/kg P.O., 240 minutes) | effect on the recovery of learned memory (onset) ([1]; 20 mg/kg) | a = variation of average number of errors as regard as the controls [1, 5] | E = average number of errors [1, 6] | T = average time for crossing over [1, 6] | E = average number of errors ([1]; 20 mg/kg P.O., 60 minutes) | further results |
| --- | --- | --- | --- | --- | --- | --- | --- | --- | --- | --- | --- | --- | --- | --- | --- | --- | --- | --- | --- | --- | --- |
| COc1ccc(Cc2nccc3cc(OC)c(OC)cc23)cc1OC [Papaverine] | + | 14,3 | 154,2 seconds | 7,3 | 75,5 seconds | - | 4,8 | 54,2 seconds | - | 4,7 | 49,0 seconds | - | 2,4 | 25,4 seconds | - | delayed | + | 14,0 | 150,7 seconds | 10,4 | time after which improvement in performance appeared statistically significant ([1]; 10 mg/kg): 240 mn; b = statistical value (student's test), number of errors ([1]; 10 mg/kg P.O., 240 minutes): 0,0005; time after which improvement in performance appeared statistically significant ([1]; 20 mg/kg): 180 mn; T = average time for crossing over ([1]; 20 mg/kg P.O., 60 minutes): 89,8 seconds; a = variation of average number of errors as regard as the controls ([1]; 20 mg/kg P.O., 60 minutes): +; E = average number of errors ([1]; 20 mg/kg P.O., 120 minutes): 5,6; T = average time for crossing over ([1]; 20 mg/kg P.O., 120 minutes): 53,4 seconds; a = variation of average number of errors as regard as the controls ([1]; 20 mg/kg P.O., 120 minutes): -; E = average number of errors ([1]; 20 mg/kg P.O., 180 minutes): 2,9; T = average time for crossing over ([1]; 20 mg/kg P.O., 180 minutes): 29,7 seconds; a = variation of average number of errors as regard as the controls ([1]; 20 mg/kg P.O., 180 minutes): -; b = statistical value (student's test), number of errors ([1]; 20 mg/kg P.O., 180 minutes): 0,005; E = average number of errors ([1]; 20 mg/kg P.O., 240 minutes): 3,0; T = average time for crossing over ([1]; 20 mg/kg P.O., 240 minutes): 32,8 seconds; a = variation of average number of errors as regard as the controls ([1]; 20 mg/kg P.O., 240 minutes): -; b = statistical value (student's test), number of errors ([1]; 20 mg/kg P.O., 240 minutes): 0,01; effect on the recovery of learned memory [1]: improving effect |
| CC[C@]12CCCN3CCc4c(n(c5ccccc45)[C@@](O)(C(=O)OC)C1)[C@@H]32 [Vincamine] | - | 10,8 | 135,6 seconds | 7,2 | 82,7 seconds | - | 4,6 | 44,1 seconds | - | 5,6 | 52,8 seconds | + | 4,3 | 38,6 seconds | - | delayed | + | 14,3 | 124,5 seconds | 7,1 | number of mistakes ([1]; 10 mg/kg): did not show any decrease in the number of mistakes; performances ([1]; 10 mg/kg, after 2 hours): slight improvement; start of the improving effect after the administration ([1]; 20 mg/kg): 40 min; start of the improving effect after the electroshock ([1]; 20 mg/kg): 60 mn; T = average time for crossing over ([1]; 20 mg/kg P.O., 60 minutes): 58,4 seconds; a = variation of average number of errors as regard as the controls ([1]; 20 mg/kg P.O., 60 minutes): -; E = average number of errors ([1]; 20 mg/kg P.O., 120 minutes): 5,2; T = average time for crossing over ([1]; 20 mg/kg P.O., 120 minutes): 38,2 seconds; a = variation of average number of errors as regard as the controls ([1]; 20 mg/kg P.O., 120 minutes): -; E = average number of errors ([1]; 20 mg/kg P.O., 180 minutes): 2,5; T = average time for crossing over ([1]; 20 mg/kg P.O., 180 minutes): 22,1 seconds; a = variation of average number of errors as regard as the controls ([1]; 20 mg/kg P.O., 180 minutes): -; b = statistical value (student's test), number of errors ([1]; 20 mg/kg P.O., 180 minutes): 0,0005; E = average number of errors ([1]; 20 mg/kg P.O., 240 minutes): 3,2; T = average time for crossing over ([1]; 20 mg/kg P.O., 240 minutes): 24,2 seconds; a = variation of average number of errors as regard as the controls ([1]; 20 mg/kg P.O., 240 minutes): -; b = statistical value (student's test), number of errors ([1]; 20 mg/kg P.O., 240 minutes): 0,025; number of mistakes ([1]; 20 mg/kg, 3 and 4 hours after the electroshock): significantly decreased; effect on the recovery of learned memory [1]: improving effect |
| COC(=O)C1=CO[C@@H](C)[C@H]2CN3CCc4c([nH]c5ccccc45)[C@@H]3C[C@H]12 [Raubasine, reference compound] |  |  |  |  |  |  |  |  |  |  |  |  |  |  |  |  |  |  |  |  | effect on the central nervous system (central nervous system; 50 to 100 mg/kg perorally): merely a sedative; effect on the central nervous system (central nervous system; dosage not stated): merely endowed with sedative properties; effect on the analgetic effect of Morphine [2]: does not exert such effect; also recorded: does not increase the analgetic effects of morphine |
